Source: US20250270217A1, “IMIDAZ0[1,2-A]PYRIMIDINE-5(1 H)-ONES HAVING A COVALENT WARHEAD AT THE 3-POSITION AS WRN INHIBITORS” (Incyte Corporation, priority 2023, published 2025)

Columns and labels:
WRN [1] = biological target: T1, WRN (Homo sapiens, UniProt Q14191); assay: WRN ATPase activity assay (ADP-Glo); format: biochemical; conditions: 1-hr pre-incubation with enzyme; 100 μM ATP, 25 nM forked dsDNA, 1 nM WRN; geometric mean of at least 2 replicates
T1 construct: A His-tagged construct of WRN (AA S2-S1235) was produced and used for the ATPase assay; His; made in house; host or cells: Sf9 insect cells (baculovirus)
T1 sequence (Q14191 2-1235): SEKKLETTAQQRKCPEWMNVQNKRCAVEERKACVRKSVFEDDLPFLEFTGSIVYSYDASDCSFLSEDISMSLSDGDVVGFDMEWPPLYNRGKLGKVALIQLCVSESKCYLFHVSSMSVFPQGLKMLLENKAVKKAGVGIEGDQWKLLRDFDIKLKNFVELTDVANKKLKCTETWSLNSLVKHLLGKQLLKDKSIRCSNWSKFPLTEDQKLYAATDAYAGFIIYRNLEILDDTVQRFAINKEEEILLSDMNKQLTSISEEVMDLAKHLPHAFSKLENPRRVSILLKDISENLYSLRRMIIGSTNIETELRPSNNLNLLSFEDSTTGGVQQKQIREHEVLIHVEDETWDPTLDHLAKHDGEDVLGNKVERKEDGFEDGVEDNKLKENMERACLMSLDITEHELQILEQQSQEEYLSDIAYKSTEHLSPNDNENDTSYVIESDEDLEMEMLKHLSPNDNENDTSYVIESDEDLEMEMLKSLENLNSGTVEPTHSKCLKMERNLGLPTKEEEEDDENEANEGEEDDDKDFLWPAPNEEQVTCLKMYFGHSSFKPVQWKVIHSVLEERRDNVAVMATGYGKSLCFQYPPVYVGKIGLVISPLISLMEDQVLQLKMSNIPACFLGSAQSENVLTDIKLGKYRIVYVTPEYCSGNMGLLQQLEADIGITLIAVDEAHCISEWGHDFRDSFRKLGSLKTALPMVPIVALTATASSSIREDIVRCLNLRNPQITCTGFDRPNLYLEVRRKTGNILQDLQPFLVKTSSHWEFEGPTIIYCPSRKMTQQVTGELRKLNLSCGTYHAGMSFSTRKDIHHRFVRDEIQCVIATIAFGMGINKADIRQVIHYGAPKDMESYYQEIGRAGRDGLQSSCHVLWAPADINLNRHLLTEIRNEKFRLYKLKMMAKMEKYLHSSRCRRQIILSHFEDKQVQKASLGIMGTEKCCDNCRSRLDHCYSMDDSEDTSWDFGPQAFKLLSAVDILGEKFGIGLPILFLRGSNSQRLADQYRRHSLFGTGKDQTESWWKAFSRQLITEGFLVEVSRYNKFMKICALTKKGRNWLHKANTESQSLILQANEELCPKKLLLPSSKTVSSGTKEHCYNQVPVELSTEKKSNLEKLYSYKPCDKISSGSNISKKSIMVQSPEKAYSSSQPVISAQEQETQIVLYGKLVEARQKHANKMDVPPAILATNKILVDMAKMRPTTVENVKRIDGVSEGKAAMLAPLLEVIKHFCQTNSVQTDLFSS
Method: Compounds of the Examples were tested for WRN ATPase activity. WRN ATPase activity catalyzes ATP hydrolysis to produce ADP and phosphate. DNA encoding the target protein, 6×HIS-TEV-WRN-517-945, was produced, cloned and transfected as detailed in Example D. The amount of ADP produced was measured using ADP-Glo™ Kinase Assay kit from Promega Corporation in a Greiner white regular volume 384 wells assay plate (Greiner #781075). Data was normalized to a standard curve generated using various ADP concentrations and the corresponding luminescent signal intensities at each concentration. The assay conditions were optimized for enzyme concentration (WRN), substrate concentrations (ATP & dsDNA), and the linearity of the ATPase reaction, in the following assay buffer: 50 mM Tris-HCl, pH-7.5, 2 mM MgCl2, 50 mM NaCl, 1 mM EGTA, 0.01% P-20, 0.05% BSA, and 2 mM DTT prepared with nuclease free water.
A serial dilution (1:3 scheme) of the compounds were prepared in neat DMSO, with 100 nL of the compounds dispensed in the 384 wells assay plate. An 1-hr pre-incubation of the compounds with enzyme was included. A His-tagged construct of WRN (AA S2-S1235) was produced and used for the ATPase assay. Maximum inhibition control wells were set up with the addition of only assay buffer, and no inhibition control wells were set up with neat DMSO without test compounds. The reaction was initiated by addition of 5 μL substrate mix (200 μM ultrapure ATP, and 50 nM dsDNA prepared in assay buffer) and incubated at 25° C. for 35 min. A forked dsDNA oligomer substrate was prepared by annealing equal amounts of oligo GPat-1 ([BHQ2][…]) and oligo GPat-2 ([…][TAM]) and was used as dsDNA substrate for WRN ATPase assay. A typical ATPase reaction consists of 25 nM forked dsDNA, 100 μM ATP, and 1 nM WRN prepared in assay buffer. The WRN ATPase reaction was stopped by the addition of 5 μL of ADP-Glo Reagent from ADP-Glo™ Kinase Assay kit and incubated for 40 min to deplete the unreacted ATP. Afterwards, 5 μL of Kinase Detection Reagent from the ADP-Glo™ Kinase Assay kit was added and incubated for 1 hr for the development of luminescence signal.
Luminesce signals were measured on BMG PHERAstar FSX using luminescence protocol. Data analysis was carried out using Genedata software following % of control normalization. Fitting parameters include dose response IC50, Hill slope (n), maximum inhibition (S∞), and minimum inhibition (S0). The reported IC50 values for compounds in this invention are the geometric means of at least 2 independent replicates.

WRN [2] = biological target: T1, WRN; assay: WRN Helicase activity assay (fluorescence DNA unwinding); format: biochemical; conditions: 1-hr pre-incubation with enzyme; 100 μM ATP, 25 nM forked dsDNA, 1 nM WRN; geometric mean of at least 2 replicates
Method: Compounds of the examples were tested for WRN helicase activity. DNA encoding the target protein, 6×HIS-TEV-WRN-517-945, was produced, cloned and transfected as detailed in Example D. To determine the inhibitory properties of the compounds, a 384 wells plate-based Helicase assay was set up to measure the extent of DNA unwinding (Helicase) activity of WRN. The WRN Helicase assay was designed to measure increase in fluorescence signal using a fluorescence based, donor-quencher paired forked dsDNA oligomer substrate (custom synthesis from Sigma-Aldrich) prepared by annealing equal amounts of oligo GPat-1 ([BHQ2][…]) and oligo GPat-2 ([…][TAM]). Continuous measurement of fluorescent signal was used to optimize the buffer conditions, concentration of enzyme (WRN), concentration of substrates (ATP & dsDNA), and the linearity of the Helicase reaction. All solutions were prepared in the following assay buffer: 50 mM Tris-HCl, pH-7.5, 2 mM MgCl2, 50 mM NaCl, 1 mM EGTA, 0.01% P-20, 0.05% BSA, and 2 mM DTT prepared with nuclease free water.
A serial dilution (1:3 scheme) of the compounds was prepared in neat DMSO and 100 nL of the compounds was dispensed in the Greiner black low volume (Greiner #784076) 384 wells assay plate. An 1-hr pre-incubation of the compounds with enzyme was included. A His-tagged construct of WRN (AA S2-S1235) was produced and used for the ATPase assay. Maximum inhibition control wells were set up with the addition of only assay buffer, and no inhibition control wells were set up with neat DMSO without test compounds. The reaction was initiated by addition of 5 μL substrate mix (200 μM ultrapure ATP, and 50 nM dsDNA prepared in assay buffer) and incubated at 25° C. for 35 min. A typical Helicase reaction consists of 25 nM forked dsDNA, 100 μM ATP, and 1 nM WRN prepared in assay buffer. The WRN Helicase reaction was quenched by the addition of 5 μL ‘STOP’ solution containing 100 mM EDTA (final EDTA concentration 33.33 mM) prepared in assay buffer. The plates were read on BMG PHERAstar FSX using 540/590 module to measure an increase of fluorescence. Data analysis was carried out using the Genedata software following % of control normalization. Fitting parameters include dose response IC50, Hill slope (n), maximum inhibition (S∞), and minimum inhibition (S0). The reported IC50 values for compounds in this invention are the geometric means of at least 2 independent replicates.

Compound	IC50 (WRN [1]) [µM]	IC50 (WRN [2]) [µM]
C=CC(=O)Nc1ccccc1-c1c(CC)nc2n(CC(=O)Nc3ccc(C(F)(F)F)cc3)c(C)c(C)n2c1=O [Example 21, N-(2-(7-Ethyl-2,3-dimethyl-5-oxo-1-(2-oxo-2-((4-(trifluoromethyl)phenyl)amino)ethyl)-1,5-dihydroimidazo[1,2-a]pyrimidin-6-yl)phenyl)acrylamide]	< 0.1	< 0.1
C=CC(=O)Nc1cc(-c2cnn(C)c2)ccc1-c1c(CC)nc2n(CC(=O)Nc3ccc(C(F)(F)F)cc3)c(C)cn2c1=O [Example 5, N-(2-(7-Ethyl-2-methyl-5-oxo-1-(2-oxo-2-((4-(trifluoromethyl)phenyl)amino)ethyl)-1,5-dihydroimidazo[1,2-a]pyrimidin-6-yl)-5-(1-methyl-1H-pyrazol-4-yl)phenyl)acrylamide]	< 0.1	< 0.1
C=CC(=O)Nc1ccccc1-c1c(CC)nc2n(CC(=O)Nc3ccc(C(F)(F)F)cc3)c(C)cn2c1=O [Example 1, N-(2-(7-Ethyl-2-methyl-5-oxo-1-(2-oxo-2-((4-(trifluoromethyl)phenyl)amino)ethyl)-1,5-dihydroimidazo[1,2-a]pyrimidin-6-yl)phenyl)acrylamide]	< 0.1	< 0.1
C=CC(=O)Nc1ccccc1-c1c(CC)nc2n(CC(=O)Nc3ccc(C(F)(F)F)cc3)c(C)c(-c3cnn(C)c3)n2c1=O [Example 16, N-(2-(7-Ethyl-2-methyl-3-(1-methyl-1H-pyrazol-4-yl)-5-oxo-1-(2-oxo-2-((4-(trifluoromethyl)phenyl)amino)ethyl)-1,5-dihydroimidazo[1,2-a]pyrimidin-6-yl)phenyl)acrylamide]	< 0.1	< 0.1
C=CC(=O)Nc1cc(C(=O)NC2CC2)ccc1-c1c(CC)nc2n(CC(=O)Nc3ccc(C(F)(F)F)cc3Cl)c(C)c(C)n2c1=O [Example 26, 3-Acrylamido-4-(1-(2-((2-chloro-4-(trifluoromethyl)phenyl)amino)-2-oxoethyl)-7-ethyl-2,3-dimethyl-5-oxo-1,5-dihydroimidazo[1,2-a]pyrimidin-6-yl)-N-cyclopropylbenzamide]	< 0.1	< 0.1
C=CC(=O)Nc1cc(C(=O)NCC(F)F)ccc1-c1c(CC)nc2n(CC(=O)Nc3ccc(C(F)(F)F)cc3)c(C)cn2c1=O [Example 11, 3-Acrylamido-N-(2,2-difluoroethyl)-4-(7-ethyl-2-methyl-5-oxo-1-(2-oxo-2-((4-(trifluoromethyl)phenyl)amino)ethyl)-1,5-dihydroimidazo[1,2-a]pyrimidin-6-yl)benzamide]	< 0.1	< 0.1
C=CC(=O)Nc1cc(C(=O)NC(C)C)ccc1-c1c(CC)nc2n(CC(=O)Nc3ccc(C(F)(F)F)cc3)c(C)c(C)n2c1=O [Example 28, 3-Acrylamido-4-(7-ethyl-2,3-dimethyl-5-oxo-1-(2-oxo-2-((4-(trifluoromethyl)phenyl)amino)ethyl)-1,5-dihydroimidazo[1,2-a]pyrimidin-6-yl)-N-isopropylbenzamide]	< 0.1	< 0.1
C=CC(=O)Nc1cc(C(=O)N[C@H]2CCCOC2)ccc1-c1c(CC)nc2n(CC(=O)Nc3ccc(C(F)(F)F)cc3)c(C)c(C)n2c1=O [Example 33, (S)-3-Acrylamido-4-(7-ethyl-2,3-dimethyl-5-oxo-1-(2-oxo-2-((4-(trifluoromethyl)phenyl)amino)ethyl)-1,5-dihydroimidazo[1,2-a]pyrimidin-6-yl)-N-(tetrahydro-2H-pyran-3-yl)benzamide]	< 0.1	< 0.1
C=CC(=O)Nc1cc(S(C)(=O)=O)ccc1-c1c(CC)nc2n(CC(=O)Nc3ccc(C(F)(F)F)cc3)c(C)cn2c1=O [Example 3, N-(2-(7-Ethyl-2-methyl-5-oxo-1-(2-oxo-2-((4-(trifluoromethyl)phenyl)amino)ethyl)-1,5-dihydroimidazo[1,2-a]pyrimidin-6-yl)-5-(methylsulfonyl)phenyl)acrylamide]	< 0.1	< 0.1
C=CC(=O)Nc1cc(C(=O)NC2CC2)ccc1-c1c(CC)nc2n(CC(=O)Nc3ccc(F)cc3)c(C)c(C)n2c1=O [Example 24, 3-Acrylamido-N-cyclopropyl-4-(7-ethyl-1-(2-((4-fluorophenyl)amino)-2-oxoethyl)-2,3-dimethyl-5-oxo-1,5-dihydroimidazo[1,2-a]pyrimidin-6-yl)benzamide]	< 0.1	< 0.1
C=CC(=O)Nc1cc(C(=O)NCCOC)ccc1-c1c(CC)nc2n(CC(=O)Nc3ccc(C(F)(F)F)cc3)c(C)c(C)n2c1=O [Example 31, 3-Acrylamido-4-(7-ethyl-2,3-dimethyl-5-oxo-1-(2-oxo-2-((4-(trifluoromethyl)phenyl)amino)ethyl)-1,5-dihydroimidazo[1,2-a]pyrimidin-6-yl)-N-(2-methoxyethyl)benzamide]	< 0.1	< 0.1
C=CS(=O)(=O)Nc1ccccc1-c1c(C)n(CC(=O)Nc2ccc(F)cc2)c2nc(CC)c(-c3ccccc3)c(=O)n12 [Example 38, 2-(7-Ethyl-2-methyl-5-oxo-6-phenyl-3-(2-(vinylsulfonamido)phenyl)imidazo[1,2-a]pyrimidin-1(5H)-yl)-N-(4-fluorophenyl)acetamide]	< 0.1	< 0.1
C=CS(=O)(=O)Nc1ccccc1-c1c(CC)nc2n(CC(=O)Nc3ccc(C(F)(F)F)cc3)c(C)cn2c1=O [Example 6, 2-(7-Ethyl-2-methyl-5-oxo-6-(2-(vinylsulfonamido)phenyl)imidazo[1,2-a]pyrimidin-1(5H)-yl)-N-(4-(trifluoromethyl)phenyl)acetamide]	< 0.1	< 0.1
C=CC(=O)Nc1ccccc1-c1c(CC)nc2n(CC(=O)Nc3ccc(C(F)(F)F)cc3Cl)c(C)cn2c1=O [Example 2, N-(2-(1-(2-((2-Chloro-4-(trifluoromethyl)phenyl)amino)-2-oxoethyl)-7-ethyl-2-methyl-5-oxo-1,5-dihydroimidazo[1,2-a]pyrimidin-6-yl)phenyl)acrylamide]	< 0.1	< 0.1
C=CC(=O)Nc1c(Cl)cccc1-c1c(CC)nc2n(CC(=O)Nc3ccc(Cl)cc3Cl)c(C)cn2c1=O [Example 44, N-(2-chloro-6-(1-(2-((2,4-dichlorophenyl)amino)-2-oxoethyl)-7-ethyl-2-methyl-5-oxo-1,5-dihydroimidazo[1,2-a]pyrimidin-6-yl)phenyl)acrylamide]	< 0.1	< 0.1
